From patent US20120264753A1, “NOVEL 1-(BIPHENYL-4-YL-METHYL)-1H-IMIDAZOLE DERIVATIVE AND PHARMACEUTICAL PRODUCT CONTAINING SAME” (KOWA COMPANY, LTD., priority 2009, published 2012)

What was measured:
human PPARγ2 = biological target: T1, human PPARγ2 (Homo sapiens, UniProt P37231); experiment: PPARγ activation activity, Gal4-PPARγ2 LBD luciferase transfection assay in COS7 cells; type: cell-based; conditions: Gal4-human PPARγ2 LBD chimera, luciferase reporter, 16 hours
T1 construct: the amino acids 182 to 505 of human PPARγ2; expressed in transfected cells; host or cells: COS7 cells (African green monkey kidney)
T1 sequence (P37231 182-505): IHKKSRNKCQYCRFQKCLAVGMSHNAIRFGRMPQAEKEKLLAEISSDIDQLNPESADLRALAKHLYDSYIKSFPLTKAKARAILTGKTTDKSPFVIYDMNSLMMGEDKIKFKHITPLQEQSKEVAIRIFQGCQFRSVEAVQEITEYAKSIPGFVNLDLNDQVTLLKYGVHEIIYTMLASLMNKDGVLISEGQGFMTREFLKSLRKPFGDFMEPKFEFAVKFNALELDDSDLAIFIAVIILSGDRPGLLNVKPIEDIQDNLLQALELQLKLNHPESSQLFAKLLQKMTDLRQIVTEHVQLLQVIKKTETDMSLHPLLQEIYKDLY
Procedure: PPARγ Activation Activity
The agonistic activity of the compounds of the invention on PPARγ was measured based on the transfection assay using COS7 cells (DS Pharma Biomedical Co., Ltd., Osaka, Japan), which are the cell line derived from the kidney of the African green monkey. COS7 cells were cultured under 5% CO2 concentration, and DMEM medium containing 10% fetal bovine serum, glutamic acid, and antibiotics was used as a medium.
As an expression vector, a chimera in which DNA binding domain of Gal4, which is a yeast transcription factor, and ligand binding domain of human PPARγ2 are fused, i.e., a fused product between the amino acids 1 to 147 of Gal4 transcription factor and the amino acids 182 to 505 of human PPARγ2, was used. Furthermore, as a reporter vector, a firefly luciferase containing five copies of Gal4 recognition sequence in the promoter region was used. Plasmid transfection to the cells was performed according to a method which uses jetPEI (trade name, manufactured by Funakoshi Co., Ltd., Tokyo, Japan). Furthermore, β-galactosidase expression vector was employed as an internal standard.
After the transfection of the cells, the medium was replaced with a DMEM medium (containing […]) added with the test compound, and the cells were further cultured for 16 hours. After that, the luciferase activity and β-galactosidase activity in the cell lysis solution were measured.
For the present test, dimethyl sulfoxide (DMSO) was used for dissolution and dilution of the test compounds, and during the cell treatment, the DMSO concentration in DMEM medium (containing 1% serum) was adjusted to 0.1%. The 50% effective concentration of the test compound (EC50, 50% effect concentration) was calculated by using SAS Preclinical Package Ver 5.0 (trade name, manufactured by SAS institute Japan Co., Tokyo, Japan), which is a statistical analysis program.

[1] = biological target: T2, angiotensin II type 1 receptor (Oryctolagus cuniculus, UniProt P34976); experiment: Angiotensin II antagonistic activity in isolated rabbit blood vessels; conditions: angiotensin II (10 nM)-induced contraction of rabbit thoracic aorta ring; read-out: Angiotensin II 50% inhibition concentration
T2 construct: By using a specimen of isolated rabbit blood vessels; from tissue; host or cells: rabbit (New Zealand White) thoracic aorta ring
T2 sequence (P34976 1-359): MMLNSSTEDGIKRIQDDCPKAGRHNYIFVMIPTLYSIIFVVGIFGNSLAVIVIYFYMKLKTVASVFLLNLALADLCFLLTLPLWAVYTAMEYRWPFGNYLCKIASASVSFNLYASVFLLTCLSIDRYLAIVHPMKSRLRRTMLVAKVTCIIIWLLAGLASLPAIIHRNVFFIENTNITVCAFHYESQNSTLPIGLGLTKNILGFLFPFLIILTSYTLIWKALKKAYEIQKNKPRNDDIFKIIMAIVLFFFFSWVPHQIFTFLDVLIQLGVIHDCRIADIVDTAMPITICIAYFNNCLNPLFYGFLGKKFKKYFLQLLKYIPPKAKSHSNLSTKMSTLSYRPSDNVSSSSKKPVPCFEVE
Text: Angiotensin II Antagonistic Activity in Isolated Rabbit Blood Vessels
By using a specimen of isolated rabbit blood vessels, antagonistic activity of the compounds of the invention against angiotensin II type 1 receptor was estimated from a dose-response curve of angiotensin II-induced blood vessel contraction. Specifically, the specimen of thoracic aorta ring of a rabbit (New Zealand White: male, 2.4 to 3.0 kg) was suspended in a magnus bath filled with Krebs-Henseleite buffer (composition: 118 mM NaCl, 4.7 mM KCl, 2.55 mM CaCl2, 1.18 mM MgSO4, 1.18 mM KH2PO4, 24.88 mM NaHCO3, and 11.1 mM D-glucose), and angiotensin II (10 nM)-induced contraction was obtained in the presence of the compounds of each Example (1 nmol/L to 10 μmol/L). During the measurement, the inside temperature of the magnus bath was maintained at 37° C. and the bath was continuously ventilated with a sufficient amount of mixed gas (95% O2 and 5% CO2). The angiotensin II-induced contraction was converted into a relative value (%) that is based on the angiotensin II (10 nM)-induced contraction in the absence of the compounds of each Example. From the concentration-response curve obtained therefrom, 50% inhibition concentration (IC50 value) was calculated by using SAS Preclinical Package Ver 5.0 (trade name, manufactured by SAS institute Japan Co., Tokyo, Japan), which is a statistical analysis program. As described in the Table 1, it was confirmed that the compounds of the invention have a potent angiotensin II antagonistic activity.

Structure (SMILES)	EC50 (human PPARγ2)	IC50 [1]
CCCCc1nc(-c2ccc(F)cc2)c(CO)n1Cc1ccc(-c2ccccc2-c2noc(=O)[nH]2)cc1 [Example 1, 3-[4′-[{2-butyl-4-(4-fluorophenyl)-5-(hydroxymethyl)-1H-imidazol-1-yl}methyl]biphenyl-2-yl]-1,2,4-oxadiazol-5(4H)-one]	1520 nM	
CCCCc1nc(-c2ccc(F)cc2)c(C(=O)OC)n1Cc1ccc(-c2ccccc2-c2noc(=O)[nH]2)cc1 [Example 2, methyl 2-butyl-4-(4-fluorophenyl)-1-[{2′-(5-oxo-4,5-dihydro-1,2,4-oxadiazol-3-yl)biphenyl-4-yl}methyl]-1H-imidazole-5-carboxylic acid]		4070 nM
CCCCc1nc(-c2ncc(OCC)cn2)c(CO)n1Cc1ccc(-c2ccccc2-c2noc(=O)[nH]2)cc1 [Example 4, 3-[4′-[{2-butyl-4-(5-ethoxypyrimidin-2-yl)-5-(hydroxymethyl)-1H-imidazol-1-yl}methyl]-biphenyl-2-yl]-1,2,4-oxadiazol-5(4H)-one]	1480 nM	1040 nM
CCCCc1nc(-c2ncc(OCC)cn2)c(CO)n1Cc1ccc(-c2ccccc2-c2nnn[nH]2)cc1 [Example 5, [1-[{2′-(1H-tetrazol-5-yl)biphenyl-4-yl}methyl]-2-butyl-4-(5-ethoxypyrimidin-2-yl)-1H-imidazol-5-yl]methanol]		770 nM
CCCCc1nc(-c2ncc(OCC)cn2)c(C(=O)OC)n1Cc1ccc(-c2ccccc2-c2noc(=O)[nH]2)cc1 [Example 6, methyl 2-butyl-4-(5-ethoxypyrimidin-2-yl)-1-[{2′-(5-oxo-4,5-dihydro-1,2,4-oxadiazol-3-yl)biphenyl-4-yl}methyl]-1H-imidazole-5-carboxylic acid]	560 nM	6940 nM
CCCCc1nc(-c2ncc(OCC)cn2)c(C(=O)OC)n1Cc1ccc(-c2ccccc2-c2nnn[nH]2)cc1 [Example 8, methyl 1-[{2′-(1H-tetrazol-5-yl)biphenyl-4-yl}methyl]-2-butyl-4-(5-ethoxypyrimidin-2-yl)-1H-imidazole-5-carboxylic acid]	3010 nM	1010 nM
CCCCc1nc(-c2ccc(F)cc2)c(C(N)=O)n1Cc1ccc(-c2ccccc2-c2noc(=O)[nH]2)cc1 [Example 10, 2-butyl-4-(4-fluorophenyl)-1-({2′-(5-oxo-4,5-dihydro-1,2,4-oxadiazol-3-yl)biphenyl-4-yl}methyl)-1H-imidazole-5-carboxamide]	3430 nM	800 nM
CCCCc1nc(-c2ccc(F)cc2)c(C(=O)NCC)n1Cc1ccc(-c2ccccc2-c2noc(=O)[nH]2)cc1 [Example 11, 2-butyl-N-ethyl-4-(4-fluorophenyl)-1-[{2′-(5-oxo-4,5-dihydro-1,2,4-oxadiazol-3-yl)biphenyl-4-yl}methyl]-1H-imidazole-5-carboxamide]	2280 nM	5690 nM
CCCc1nc2c(C)cc(-c3nc4ccccc4n3C)cc2n1Cc1ccc(-c2ccccc2C(=O)O)cc1 [telmisartan, reference compound]	1000 to 5000 nM	

Next, values leading:

EC50 (human PPARγ2)	IC50 [1]	Structure (SMILES)
2370 nM		CCCCc1nc(-c2ccc(F)cc2)c(C(=O)N(CC)CC)n1Cc1ccc(-c2ccccc2-c2noc(=O)[nH]2)cc1 [Example 12]
	460 nM	CCCCc1nc(-c2ccc(F)cc2)c(C(N)=O)n1Cc1ccc(-c2ccccc2-c2nnn[nH]2)cc1 [Example 15, 1-[{2′-(1H-tetrazol-5-yl)biphenyl-4-yl}methyl]-2-butyl-4-(4-fluorophenyl)-1H-imidazole-5-carboxamide]
	990 nM	CCCCc1nc(-c2ccc(F)cc2)c(C(=O)NCC)n1Cc1ccc(-c2ccccc2-c2nnn[nH]2)cc1 [Example 16, 1-[{2′-(1H-tetrazol-5-yl)biphenyl-4-yl}methyl]-2-butyl-N-ethyl-4-(4-fluorophenyl)-1H-imidazole-5-carboxamide]
3300 nM		CCCCc1nc(-c2ccc(F)cc2)c(C(=O)N(CC)CC)n1Cc1ccc(-c2ccccc2-c2nnn[nH]2)cc1 [Example 17, 1-[{2′-(1H-tetrazol-5-yl)biphenyl-4-yl}methyl]-2-butyl-N,N-diethyl-4-(4-fluorophenyl)-1H-imidazole-5-carboxamide]
4320 nM	1600 nM	CCCCc1nc(-c2ccc(F)cc2)c(C(=O)N2CCOCC2)n1Cc1ccc(-c2ccccc2-c2nnn[nH]2)cc1 [Example 18, [1-[{2′-(1H-tetrazol-5-yl)biphenyl-4-yl}methyl]-2-butyl-4-(4-fluorophenyl)-1H-imidazol-5-yl](morpholino)methanone]
	6980 nM	CCCCc1nc(-c2ccc(F)cc2)c(C(=O)N2CCCC2)n1Cc1ccc(-c2ccccc2-c2nnn[nH]2)cc1 [Example 19, [1-[{2′-(1H-tetrazol-5-yl)biphenyl-4-yl}methyl]-2-butyl-4-(4-fluorophenyl)-1H-imidazol-5-yl](pyrrolidin-1-yl)methanone]
